Experimental data published in patent publication US11564928B1, “Cannabinoid receptor type 2 (CB2) modulators and uses thereof” (Teon Therapeutics, Inc., priority 2020, dated 2023).
Like-named read-outs stand apart in the source and are kept apart here.

Tests used:
[1] = biological target: T1, human CB2 receptor (Homo sapiens (Human), UniProt P34972); test: CB2 receptor binding assay ([3H]CP-55,940 displacement, HEK-293 membranes)
[2] = biological target: human recombinant CB1R (Homo sapiens (Human), UniProt P21554); test: CB1 receptor binding assay ([3H]CP-55,940 displacement, HEK-293 membranes); conditions: membranes of HEK-293 cells with human recombinant CB1R, [3H]CP-55,940, read-out: CB1 IC50
Summary of the method: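 Displacement of [3H]CP-55,940 was measured on human CB1R- or CB2R-transfected HEK-293 membranes after 120 min at 37 °C, in duplicate, with filtration and scintillation counting. For CB2R, incubation used Tris-HCl 50 mM, MgCl2 5 mM, CaCl2 1 mM, BSA 0.2%, pH 7.4. Ki values were derived from variable-slope IC50 fits using Cheng–Prusoff.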

[3] = biological target: T1, human CB2 receptor; test: CB2 receptor cAMP assay (DiscoverX HitHunter cAMP XS+); assay type: cell-based; conditions: for Emax: CHO-K1, read-out: Max Stimulation %
Protocol: cAMP Hunter CHO-K-1 cell lines expressing human CB2 receptor (Eurofins) were expanded from freezer stocks according to standard procedures. Cells were seeded in a total volume of 20 μL into white walled, 384-well microplates and incubated at 37° C. for the appropriate time prior to testing. cAMP modulation in agonist, inverse agonist or antagonist format was determined using the DiscoverX HitHunter cAMP XS+ assay (Eurofins). For agonist determination, cells were incubated with sample in the presence of EC80 forskolin to induce response. Media was aspirated from cells and replaced with 15 μL 2:1 HBSS/10 mM Hepes: cAMP XS+Ab reagent. Intermediate dilution of sample stocks was performed to generate 4× sample in assay buffer containing 4× EC80 forskolin. 5 μL of 4× sample was added to cells and incubated at 37° C. or room temperature for 30 or 60 minutes. Final assay vehicle concentration was 1%. For inverse agonist determination, cells were preincubated with sample in the presence of EC20 forskolin. Media was aspirated from cells and replaced with 15 μL, 2:1 HBSS/10 mM Hepes: cAMP XS+Ab reagent. Intermediate dilution of sample stocks was performed to generate 4× sample in assay buffer containing 4× EC20 forskolin. 5 μL of 4× sample was added to cells and incubated at 37° C. or room temperature for 30 or 60 minutes. Final assay vehicle concentration was 1%. For antagonist determination, cells were pre-incubated with sample followed by agonist challenge at the EC80 concentration. Media was aspirated from cells and replaced with 10 μL 1:1 HBSS/Hepes: cAMP XS+Ab reagent. 5 μL of 4× compound was added to the cells and incubated at 37° C. or room temperature for 30 minutes. 5 μL of 4× EC80 agonist was added to cells and incubated at 37° C. or room temperature for 30 or 60 minutes. EC80 forksolin was included. After appropriate compound incubation, assay signal was generated through incubation with 20 μL cAMP XS+ED/CL lysis cocktail for one hour followed by incubation with 20 μL, cAMP XS+EA reagent for three hours at room temperature. Microplates were read following signal generation with a PerkinElmer Envision instrument for chemiluminescent signal detection. Compound activity was analyzed using CBIS data analysis suite (ChemInnovation, CA). For agonist mode assay, percentage activity is calculated using the following formula: % Activity=100%×(1−(mean RLU of test sample−mean RLU of MAX control)/(mean RLU of vehicle control−mean RLU of MAX control)). For inverse agonist mode assay, percentage activity is calculated using the following formula: % Inverse Agonist Activity=100%×((mean RLU of test sample−mean RLU of EC20 forskolin)/(mean RLU of forskolin positive control−mean RLU of EC20 control)). For antagonist mode assay, percentage inhibition is calculated using the following formula: % Inhibition=100%×(mean RLU of test sample−mean RLU of EC80 control)/(mean RLU of forskolin positive control−mean RLU of EC80 control). Data are analyzed and IC50 is calculated using GraphPad Prism 5 and the model “log(inhibitor) vs. response—Variable slope”.

[4] = membranes of HEK-293 cells with human recombinant CB2R, [3H]CP-55,940, read-out: CB2 IC50
[5] = cAMP Hunter CHO-K-1 cells expressing human CB2 receptor, read-out: cAMP IC50
[6] = membranes of HEK-293 cells with human recombinant CB2R, [3H]CP-55,940, class symbols, read-out: CB2 IC50

human recombinant CB1R, sequence (P21554 whole entry): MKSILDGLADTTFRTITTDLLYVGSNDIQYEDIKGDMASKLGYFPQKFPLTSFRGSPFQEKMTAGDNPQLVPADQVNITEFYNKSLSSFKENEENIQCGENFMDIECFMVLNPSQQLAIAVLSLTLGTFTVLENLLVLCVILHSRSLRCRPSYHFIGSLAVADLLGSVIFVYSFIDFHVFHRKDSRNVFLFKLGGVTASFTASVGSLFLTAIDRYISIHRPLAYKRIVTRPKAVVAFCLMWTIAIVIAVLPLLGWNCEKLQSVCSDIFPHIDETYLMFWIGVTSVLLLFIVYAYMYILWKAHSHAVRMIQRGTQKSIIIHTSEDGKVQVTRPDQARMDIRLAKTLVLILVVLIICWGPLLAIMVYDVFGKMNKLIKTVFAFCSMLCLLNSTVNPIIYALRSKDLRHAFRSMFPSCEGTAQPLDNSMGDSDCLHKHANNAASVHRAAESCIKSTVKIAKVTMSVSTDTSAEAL
T1 sequence (P34972 whole entry): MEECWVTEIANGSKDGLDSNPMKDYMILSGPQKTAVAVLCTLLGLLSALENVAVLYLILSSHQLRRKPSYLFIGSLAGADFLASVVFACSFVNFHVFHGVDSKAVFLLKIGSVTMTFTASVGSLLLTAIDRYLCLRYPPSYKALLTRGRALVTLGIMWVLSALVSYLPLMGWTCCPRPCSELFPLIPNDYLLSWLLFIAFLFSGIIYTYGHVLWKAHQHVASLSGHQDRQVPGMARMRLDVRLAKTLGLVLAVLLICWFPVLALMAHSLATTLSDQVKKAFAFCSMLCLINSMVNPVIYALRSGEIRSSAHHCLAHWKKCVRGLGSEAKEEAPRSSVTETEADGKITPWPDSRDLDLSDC

| Compound | IC50 [1, 4] [µM] | IC50 [2] [µM] | IC50 [3, 5] [µM] | IC50 [1, 6] [µM] | IC50 ([2]; class symbols) [µM] | IC50 [3] [µM] | Emax [3] [%] | IC50 [1] [µM] |
| --- | --- | --- | --- | --- | --- | --- | --- | --- |
| O=C(NC1CC2(CCC2)C1)c1c(O)c2cc(-c3ccc(F)cc3)cnc2n(CCN2CCOCC2)c1=O [Compound 6, 6-(4-fluorophenyl)-4-hydroxy-1-(2-morpholinoethyl)-2-oxo-N-(spiro[3.3]heptan-2-yl)-1,2-dihydro-1,8-naphthyridine-3-carboxamide] | 0.0061 | > 10 | > 1 |  |  |  |  |  |
| O=C(NC1CCC(F)(F)CC1)c1c(O)c2cc(-c3ccc(F)cc3)cnc2n(CCN2CCOCC2)c1=O [Compound 7, N-(4,4-difluorocyclohexyl)-6-(4-fluorophenyl)-4-hydroxy-1-(2-morpholinoethyl)-2-oxo-1,2-dihydro-1,8-naphthyridine-3-carboxamide] |  |  | > 1 | > 1 | > 1 |  |  |  |
| O=C(NC12CC(C1)C2)c1c(O)c2cc(-c3ccc(F)cc3)cnc2n(CCN2CCOCC2)c1=O [Compound 8, N-(bicyclo[1.1.1]pentan-1-yl)-6-(4-fluorophenyl)-4-hydroxy-1-(2-morpholinoethyl)-2-oxo-1,2-dihydro-1,8-naphthyridine-3-carboxamide] | 0.02 | > 10 |  |  |  | 0.04 | 32 |  |
| CC(NC(=O)c1c(O)c2cc(-c3ccc(F)cc3)cnc2n(CCN2CCOCC2)c1=O)c1ccc(F)cc1 (centres unmarked) [Compound 9, 6-(4-fluorophenyl)-N-(1-(4-fluorophenyl)ethyl)-4-hydroxy-1-(2-morpholinoethyl)-2-oxo-1,2-dihydro-1,8-naphthyridine-3-carboxamide] |  |  |  | < 0.1 | > 1 | 0.071 | 7 |  |
| COc1ccc(-c2cnc3c(c2)c(O)c(C(=O)NC2CC4(CCC4)C2)c(=O)n3CCN2CCOCC2)cc1 [Compound 10, 4-hydroxy-6-(4-methoxyphenyl)-1-(2-morpholinoethyl)-2-oxo-N-(spiro[3.3]heptan-2-yl)-1,2-dihydro-1,8-naphthyridine-3-carboxamide] | 0.007 | > 10 |  |  |  | 0.007 | 82 |  |
| O=C(NC1CC2(CCC2)C1)c1c(O)c2cc(-c3ccc(Cl)cc3)cnc2n(CCN2CCOCC2)c1=O [Compound 11, 6-(4-chlorophenyl)-4-hydroxy-1-(2-morpholinoethyl)-2-oxo-N-(spiro[3.3]heptan-2-yl)-1,2-dihydro-1,8-naphthyridine-3-carboxamide] |  |  |  |  | > 1 | 0.081 | 60 | 0.1 to 0.999 |
| COc1ccc(-c2cnc3c(c2)c(O)c(C(=O)NC24CC(C2)C4)c(=O)n3CCN2CCOCC2)cc1 [Compound 13, N-(bicyclo[1.1.1]pentan-1-yl)-4-hydroxy-6-(4-methoxyphenyl)-1-(2-morpholinoethyl)-2-oxo-1,2-dihydro-1,8-naphthyridine-3-carboxamide] | 0.017 | > 10 |  |  |  | 0.062 | 67 |  |
| CC1CCC(NC(=O)c2c(O)c3cc(-c4ccc(OC(F)F)cc4)cnc3n(CCN3CCOCC3)c2=O)CC1 (centres unmarked) [Compound 15, 6-(4-(difluoromethoxy)phenyl)-4-hydroxy-N-(4-methylcyclohexyl)-1-(2-morpholinoethyl)-2-oxo-1,2-dihydro-1,8-naphthyridine-3-carboxamide] | 0.0088 | > 10 |  |  |  | 0.021 | 75 |  |
| CC1CCC(NC(=O)c2c(O)c3cc(-c4ccc5c(c4)OCCO5)cnc3n(CCN3CCOCC3)c2=O)CC1 (centres unmarked) [Compound 19, 6-(2,3-dihydrobenzo[b][1,4]dioxin-6-yl)-4-hydroxy-N-(4-methylcyclohexyl)-1-(2-morpholinoethyl)-2-oxo-1,2-dihydro-1,8-naphthyridine-3-carboxamide] | 0.02 | > 10 |  |  |  | 0.043 | 81 |  |
| COc1ccc(-c2cnc3c(c2)c(O)c(C(=O)NC2CCC(C)CC2)c(=O)n3CCN2CCOCC2)cc1 (centres unmarked) [Compound 20, 4-hydroxy-6-(4-methoxyphenyl)-N-(4-methylcyclohexyl)-1-(2-morpholinoethyl)-2-oxo-1,2-dihydro-1,8-naphthyridine-3-carboxamide] | 0.0047 | > 10 |  |  |  | 0.007 | 93 |  |
| COc1ccc(-c2cnc3c(c2)cc(C(=O)NC2CC4(CCC4)C2)c(=O)n3CCN2CCOCC2)cc1 [Compound 29, 6-(4-methoxyphenyl)-1-(2-morpholinoethyl)-2-oxo-N-(spiro[3.3]heptan-2-yl)-1,2-dihydro-1,8-naphthyridine-3-carboxamide] | 0.0012 | > 10 |  |  |  | 0.005 | 107 |  |
| COc1ccc(-c2cnc3c(c2)cc(C(=O)NC(C)c2ccc(F)cc2)c(=O)n3CCN2CCOCC2)cc1 (centres unmarked) [Compound 30, N-(1-(4-fluorophenyl)ethyl)-6-(4-methoxyphenyl)-1-(2-morpholinoethyl)-2-oxo-1,2-dihydro-1,8-naphthyridine-3-carboxamide] | 0.0012 | > 10 |  |  |  | 0.017 | 89 |  |
| COc1ccc(-c2cnc3c(c2)cc(C(=O)NC2CC4(COC4)C2)c(=O)n3CCN2CCOCC2)cc1 [Compound 31, 6-(4-methoxyphenyl)-1-(2-morpholinoethyl)-2-oxo-N-(2-oxaspiro[3.3]heptan-6-yl)-1,2-dihydro-1,8-naphthyridine-3-carboxamide] |  |  | 0.127 | < 0.1 | > 1 |  | 78 |  |
| O=C(NC1CC2(CCC2)C1)c1cc2cc(-c3ccc4c(c3)OCCO4)cnc2n(CCN2CCOCC2)c1=O [Compound 33, 6-(2,3-dihydrobenzo[b][1,4]dioxin-6-yl)-1-(2-morpholinoethyl)-2-oxo-N-(spiro[3.3]heptan-2-yl)-1,2-dihydro-1,8-naphthyridine-3-carboxamide] | 0.004 | > 10 |  |  |  | 0.006 |  |  |
| N#Cc1ccc(-c2cnc3c(c2)cc(C(=O)NC2CC4(CCC4)C2)c(=O)n3CCN2CCOCC2)nc1 [Compound 36, 6-(5-cyanopyridin-2-yl)-1-(2-morpholinoethyl)-2-oxo-N-(spiro[3.3]heptan-2-yl)-1,2-dihydro-1,8-naphthyridine-3-carboxamide] | 0.005 | > 10 |  |  |  | 0.013 | 89 |  |
| CC(C)(NC(=O)c1cc2cc(-c3ccc(C#N)cn3)cnc2n(CCN2CCOCC2)c1=O)c1ccc(F)cc1 [Compound 40, 6-(5-cyanopyridin-2-yl)-N-(2-(4-fluorophenyl)propan-2-yl)-1-(2-morpholinoethyl)-2-oxo-1,2-dihydro-1,8-naphthyridine-3-carboxamide] | 0.007 | > 10 |  |  |  | 0.01 | 74 |  |
| N#Cc1ccc(-c2cnc3c(c2)cc(C(=O)NC2(c4ccc(F)cc4)CC2)c(=O)n3CCN2CCOCC2)nc1 [Compound 42, 6-(5-cyanopyridin-2-yl)-N-(1-(4-fluorophenyl)cyclopropyl)-1-(2-morpholinoethyl)-2-oxo-1,2-dihydro-1,8-naphthyridine-3-carboxamide] | 0.023 | > 10 |  |  |  | 0.014 | 73 |  |
| N#Cc1ccc(-c2cnc3c(c2)cc(C(=O)NC2CC4(CCC4)C2)c(=O)n3CCN2CCOCC2)cc1 [Compound 44, 6-(4-cyanophenyl)-1-(2-morpholinoethyl)-2-oxo-N-(spiro[3.3]heptan-2-yl)-1,2-dihydro-1,8-naphthyridine-3-carboxamide] | 0.0072 | 6.08 | > 1 |  |  |  |  |  |
